Data: patent US20230108906A1, “SUBSTITUTED BICYCLIC AND TRICYCLIC UREAS AND AMIDES, ANALOGUES THEREOF, AND METHODS USING SAME” (Arbutus Biopharma Corporation, priority 2019, published 2023)

Test system: HBV rcDNA in HepDE19 cells
Experiment: HepDE19 assay with bDNA quantitation of HBV rcDNA
Assay type: cell-based, hepatitis B virus (HBV)
Settings: Hepatitis B virus, HepDE19, 168 h, inhibition of rcDNA formation in HepDE19 cells (HepG2 derived), Tet-free medium, 7 day incubation, Quantigene 2.0 bDNA readout, top concentration 25 μM; read-out: DE-19bDNA EC50
Outline: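 Cytotoxicity run on replicate plates (5,000 cells/well, 4 days, ATP luminescence, CC50), while antiviral plates (50,000 cells/well) received compound for 7 days after tetracycline withdrawal to induce HBV replication. Top dose 25 μM, 8 points, 0.5% DMSO; rcDNA by branched-DNA assay, % inhibition fitted (4-parameter) for EC50 and EC90.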

`CN1Cc2[nH]c(=O)c3cc(F)c(F)cc3c2C(N(C)C(=O)Nc2ccc(F)c(C#N)c2)C1` (single isomer, unassigned) [Compound 174, 3-(3-Cyano-4-fluorophenyl)-1-(8,9-difluoro-3-methyl-6-oxo-1,2,3,4,5,6-hexahydrobenzo[c][1,7]naphthyridin-1-yl)-1-methylurea] showed an EC50 of 0.31 µM.

Same assay, conditions: inhibition of rcDNA formation in HepDE19 cells (HepG2 derived), Tet-free medium, 7 day incubation, Quantigene 2.0 bDNA readout, top concentration 25 μM; read-out: DE-19bDNA EC50

Point of comparison: `CN(C(=O)Nc1ccc(F)c(C#N)c1)C1CN(CCO)Cc2[nH]c(=O)c3cc(F)ccc3c21` (single isomer, unassigned) [Compound 171, 3-(3-Cyano-4-fluorophenyl)-1-(8-fluoro-3-(2-hydroxyethyl)-6-oxo-1,2,3,4,5,6-hexahydrobenzo[c][1,7]naphthyridin-1-yl)-1-methylurea], EC50 23 µM. Against it:
- CN(C(=O)Nc1ccc(F)c(C#N)c1)C1CN(CCO)Cc2[nH]c(=O)c3cc(F)ccc3c21 (single isomer, unassigned) [Compound 172, 3-(3-Cyano-4-fluorophenyl)-1-(8-fluoro-3-(2-hydroxyethyl)-6-oxo-1,2,3,4,5,6-hexahydrobenzo[c][1,7]naphthyridin-1-yl)-1-methylurea] — 2.3-fold lower, 10 µM
- CN(C(=O)Nc1ccc(F)c(C#N)c1)C1CNCc2[nH]c(=O)c3cc(F)c(F)cc3c21 (single isomer, unassigned) [Compound 175, 3-(3-Cyano-4-fluorophenyl)-1-(8,9-difluoro-6-oxo-1,2,3,4,5,6-hexahydrobenzo[c][1,7]naphthyridin-1-yl)-1-methylurea] — 15-fold lower, 1.5 µM
- CN(C(=O)Nc1ccc(F)c(C#N)c1)C1CNCc2[nH]c(=O)c3cc(F)c(F)cc3c21 (single isomer, unassigned) [Compound 176, 3-(3-Cyano-4-fluorophenyl)-1-(8,9-difluoro-6-oxo-1,2,3,4,5,6-hexahydrobenzo[c][1,7]naphthyridin-1-yl)-1-methylurea] — 460-fold lower, 0.05 µM
- CC(=O)N1Cc2[nH]c(=O)c3cc(F)c(F)cc3c2C(N(C)C(=O)Nc2ccc(F)c(C#N)c2)C1 (single isomer, unassigned) [Compound 177, 1-(3-Acetyl-8,9-difluoro-6-oxo-1,2,3,4,5,6-hexahydrobenzo[c][1,7]naphthyridin-1-yl)-3-(3-cyano-4-fluorophenyl)-1-methylurea] — higher, ≥ 25 µM
- CC(=O)N1Cc2[nH]c(=O)c3cc(F)c(F)cc3c2C(N(C)C(=O)Nc2ccc(F)c(C#N)c2)C1 (single isomer, unassigned) [Compound 178, 1-(3-Acetyl-8,9-difluoro-6-oxo-1,2,3,4,5,6-hexahydrobenzo[c][1,7]naphthyridin-1-yl)-3-(3-cyano-4-fluorophenyl)-1-methylurea] — 2.1-fold lower, 11 µM
- CN(C(=O)Nc1ccc(F)c(Cl)c1)C1CN(CCO)Cc2[nH]c(=O)c3cc(F)c(F)cc3c21 (single isomer, unassigned) [Compound 179, 3-(3-Chloro-4-fluorophenyl)-1-(8,9-difluoro-3-(2-hydroxyethyl)-6-oxo-1,2,3,4,5,6-hexahydrobenzo[c][1,7]naphthyridin-1-yl)-1-methylurea] — 3.2-fold lower, 7.3 µM
- CN(C(=O)Nc1ccc(F)c(Cl)c1)C1CN(CCO)Cc2[nH]c(=O)c3cc(F)c(F)cc3c21 (single isomer, unassigned) [Compound 180, 3-(3-Chloro-4-fluorophenyl)-1-(8,9-difluoro-3-(2-hydroxyethyl)-6-oxo-1,2,3,4,5,6-hexahydrobenzo[c][1,7]naphthyridin-1-yl)-1-methylurea] — 16-fold lower, 1.4 µM
- CN(C(=O)Nc1ccc(F)c(C#N)c1)C1CN(CCO)Cc2[nH]c(=O)c3cc(F)c(F)cc3c21 (single isomer, unassigned) [Compound 181, 3-(3-Cyano-4-fluorophenyl)-1-(8,9-difluoro-3-(2-hydroxyethyl)-6-oxo-1,2,3,4,5,6-hexahydrobenzo[c][1,7]naphthyridin-1-yl)-1-methylurea] — higher, ≥ 25 µM
- CN(C(=O)Nc1ccc(F)c(C#N)c1)C1CN(CCO)Cc2[nH]c(=O)c3cc(F)c(F)cc3c21 (single isomer, unassigned) [Compound 182, 3-(3-Cyano-4-fluorophenyl)-1-(8,9-difluoro-3-(2-hydroxyethyl)-6-oxo-1,2,3,4,5,6-hexahydrobenzo[c][1,7]naphthyridin-1-yl)-1-methylurea] — 4.7-fold lower, 4.9 µM
- CN(C(=O)Nc1ccc(F)c(Cl)c1)C1CSCc2[nH]c(=O)c3cc(F)ccc3c21 (single isomer, unassigned) [Compound 183, 3-(3-Chloro-4-fluorophenyl)-1-(8-fluoro-6-oxo-1,4,5,6-tetrahydro-2H-thiopyrano[3,4-c]isoquinolin-1-yl)-1-methylurea] — 21-fold lower, 1.1 µM
- CN(C(=O)Nc1ccc(F)c(Cl)c1)C1CSCc2[nH]c(=O)c3cc(F)ccc3c21 (single isomer, unassigned) [Compound 184, 3-(3-Chloro-4-fluorophenyl)-1-(8-fluoro-6-oxo-1,4,5,6-tetrahydro-2H-thiopyrano[3,4-c]isoquinoIin-1-yl)-1-methylurea] — 770-fold lower, 0.03 µM
- CN(C(=O)Nc1ccc(F)c(C#N)c1)C1CSCc2[nH]c(=O)c3cc(F)ccc3c21 (single isomer, unassigned) [Compound 185, 3-(3-Cyano-4-fluorophenyl)-1-(8-fluoro-6-oxo-1,4,5,6-tetrahydro-2H-thiopyrano[3,4-c]isoquinolin-1-yl)-1-methylurea] — 7-fold lower, 3.3 µM
- CN(C(=O)Nc1ccc(F)c(C#N)c1)C1CSCc2[nH]c(=O)c3cc(F)ccc3c21 (single isomer, unassigned) [Compound 186, 3-(3-Cyano-4-fluorophenyl)-1-(8-fluoro-6-oxo-1,4,5,6-tetrahydro-2H-thiopyrano[3,4-c]isoquinolin-1-yl)-1-methylurea] — 380-fold lower, 0.06 µM
- CN(C(=O)Nc1ccc(F)c(Cl)c1)C1CSCc2[nH]c(=O)c3cc(F)c(F)cc3c21 (single isomer, unassigned) [Compound 187, 3-(3-Chloro-4-fluorophenyl)-1-(8,9-difluoro-6-oxo-1,4,5,6-tetrahydro-2H-thiopyrano[3,4-c]isoquinolin-1-yl)-1-methylurea] — 26-fold lower, 0.9 µM
- CN(C(=O)Nc1ccc(F)c(Cl)c1)C1CSCc2[nH]c(=O)c3cc(F)c(F)cc3c21 (single isomer, unassigned) [Compound 188, 3-(3-Chloro-4-fluorophenyl)-1-(8,9-difluoro-6-oxo-1,4,5,6-tetrahydro-2H-thiopyrano[3,4-c]isoquinolin-1-yl)-1-methylurea] — 1200-fold lower, 0.02 µM
- CN(C(=O)Nc1ccc(F)c(C#N)c1)C1CSCc2[nH]c(=O)c3cc(F)c(F)cc3c21 (single isomer, unassigned) [Compound 189, 3-(3-Cyano-4-fluorophenyl)-1-(8,9-difluoro-6-oxo-1,4,5,6-tetrahydro-2H-thiopyrano[3,4-c]isoquinolin-1-yl)-1-methylurea] — 26-fold lower, 0.88 µM
- CN(C(=O)Nc1ccc(F)c(C#N)c1)C1CSCc2[nH]c(=O)c3cc(F)c(F)cc3c21 (single isomer, unassigned) [Compound 190, 3-(3-Cyano-4-fluorophenyl)-1-(8,9-difluoro-6-oxo-1,4,5,6-tetrahydro-2H-thiopyrano[3,4-c]isoquinolin-1-yl)-1-methylurea] — 1200-fold lower, 0.02 µM
- CN(C(=O)Nc1ccc(F)c(F)c1)C1CNCc2[nH]c(=O)c3cc(F)c(F)cc3c21 (single isomer, unassigned) [Compound 191, 1-(8,9-Difluoro-6-oxo-1,2,3,4,5,6-hexahydrobenzo[c][1,7]naphthyridin-1-yl)-3-(3,4-difluorophenyl)-1-methylurea] — 7.7-fold lower, 3 µM
